Measured values: patent publication EP0624315B1, “Diaryl(pyridinio and isoquinolinio) boron fungicidal agents” (AMERICAN CYANAMID COMPANY, priority 1993, dated 1994)

Assays:
Venturia inaequalis = experiment: In vivo fungicidal evaluation, Apple Scab; details: 200 ppm, host plants sprayed, dried, then inoculated; note: ranges in brackets are in %
Plasmopara viticola = experiment: In vivo fungicidal evaluation, Grape Downy Mildew; details: 200 ppm, host plants sprayed, dried, then inoculated; note: ranges in brackets are in %
Botrytis cinerea = experiment: In vivo fungicidal evaluation, Pepper Botrytis; details: 200 ppm, host plants sprayed, dried, then inoculated; note: ranges in brackets are in %
Pyricularia oryzae = assay type: in vivo; details: 200 ppm, host plants sprayed, dried, then inoculated
Cercospora beticola = experiment: In vivo fungicidal evaluation, Sugar Beet Cercospora; details: 200 ppm, host plants sprayed, dried, then inoculated; note: ranges in brackets are in %
Alternaria solani = experiment: In vivo fungicidal evaluation, Tomato Early Blight; details: 200 ppm, host plants sprayed, dried, then inoculated; note: ranges in brackets are in %
[1] = tested on: Erysiphe graminis f. sp. tritici; experiment: In vivo fungicidal evaluation, Wheat Powdery Mildew; details: 200 ppm, host plants sprayed, dried, then inoculated; note: ranges in brackets are in %
[2] = tested on: Fusarium oxysporum f. sp. cucumerinum (Fusoxc); experiment: In vitro fungicidal evaluation, mycelial growth inhibition in nutrient broth; assay type: cell-based; details: 25 ppm, 3-4 days at 21°C, rated visually; note: ranges in brackets are in %
Protocol: (§1) Test compounds are dissolved or suspended in acetone and dispersed into cell well plates containing a suspension of ground fungal mycelia in a nutrient broth. Assay plates are incubated for 3-4 days at 21°C. Growth inhibition is measured visually and is rated using the following scale:
(§2) Untreated controls, solvent blanks and reference standards are included in each test.
(§3) Assay fungi include the plant pathogens, Pythium ultimum (Pythul); Rhizoctonia solani (Rhizso); Fusarium oxysporum f. sp. cucumerinum (Fusoxc); and Pseudocercosporella herpotrichoides (Psdche).
(§4) When more than one test is run, the data are averaged. The compouds evaluated are reported by compound number given in Example 5.

[3] = tested on: Pseudocercosporella herpotrichoides (Psdche); experiment: as above; assay type: cell-based; details: 25 ppm, 3-4 days at 21°C, rated visually; note: ranges in brackets are in %
Protocol: as §1, §2, §3, §4

Pythium ultimum (Pythul) = experiment: as above; assay type: cell-based; details: 25 ppm, 3-4 days at 21°C, rated visually; note: ranges in brackets are in %
Protocol: as §1, §2, §3, §4

[4] = tested on: Rhizoctonia solani (Rhizso); experiment: as above; assay type: cell-based; details: 25 ppm, 3-4 days at 21°C, rated visually; note: ranges in brackets are in %
Protocol: as §1, §2, §3, §4

[5] = tested on: Puccinia recondita f. sp. tritici; experiment: In vivo fungicidal evaluation, Wheat Leaf Rust; details: 200 ppm, host plants sprayed, dried, then inoculated; note: ranges in brackets are in %

Compound	AS (Apple Scab) disease control rating (Venturia inaequalis)	GDM (Grape Downy Mildew) disease control rating (Plasmopara viticola)	PB (Pepper Botrytis) disease control rating (Botrytis cinerea)	RB (Rice Blast) disease control rating (Pyricularia oryzae)	SBC (Sugar Beet Cercospora) disease control rating (Cercospora beticola)	TEB (Tomato Early Blight) disease control rating (Alternaria solani)	WPM (Wheat Powdery Mildew) disease control rating [1]	FUSOXC growth inhibition rating [2]	PSDCHE growth inhibition rating [3]	PHTHUL growth inhibition rating (Pythium ultimum (Pythul))	RHIZSO growth inhibition rating [4]	WLR (Wheat Leaf Rust) disease control rating [5]
C[B-](c1ccccc1)(c1ccccc1)[n+]1ccc(-c2ccccc2)cc1 [Compound 17, (4-Phenylpyridinio)methyldiphenylboron]	9 (100)	9 (100)	9 (100)	8 (96 - 99)	8 (96 - 99)	9 (100)	8 (96 - 99)	7 (90 - 99)	7 (90 - 99)	0 (0)	5 (60 - 89)	
CC(=O)c1cc[n+]([B-](C)(c2ccccc2)c2ccccc2)cc1 [Compound 19, (4-Acetylpyridinio)methyldiphenylboron]	9 (100)	9 (100)	9 (100)	8 (96 - 99)	9 (100)	8 (96 - 99)	8 (96 - 99)	7 (90 - 99)	9 (100)	7 (90 - 99)	7 (90 - 99)	
C[B-](c1ccccc1)(c1ccccc1)[n+]1ccc(C(C)(C)C)cc1 [Compound 20, (4-Tert-butyl-pyridinio)methyldiphenylboron]	9 (100)	9 (100)	9 (100)	8 (96 - 99)	9 (100)	8 (96 - 99)	7 (90 - 95)	7 (90 - 99)	7 (90 - 99)	7 (90 - 99)	7 (90 - 99)	
(3-Butylpyridinio)methyldiphenylboron [Compound 3]	9 (100)	9 (100)	6 (75 - 89)	0 (0)	0 (0)	8 (96 - 99)	8 (96 - 99)	9 (100)	9 (100)	9 (100)	9 (100)	8 (96 - 99)
(4-Cyanopyridinio)methyldiphenylboron [Compound 16]	9 (100)	9 (100)	8 (96 - 99)	9 (100)	8 (96 - 99)	8 (96 - 99)	0 (0)	7 (90 - 99)	9 (100)	7 (90 - 99)	7 (90 - 99)	
(5,6,7,8-Tetrahydroisoquinolinio)methyldiphenylboron [Compound 4]	9 (100)	9 (100)	9 (100)	0 (0)	8 (96 - 99)	6 (75 - 89)	8 (96 - 99)	9 (100)	9 (100)	7 (90 - 99)	9 (100)	9 (100)
Bis(p-fluorophenyl)(isoquinolinio)methylboron [Compound 13]	7 (90 - 95)	9 (100)	9 (100)	7 (90 - 95)	8 (96 - 99)	8 (96 - 99)	8 (96 - 99)	9 (100)	9 (100)	9 (100)	9 (100)	7 (90 - 95)
Bis(p-fluorophenyl)methyl(5-nitroisoquinolinio)boron [Compound 15]	9 (100)	0 (0)	9 (100)	3 (30 - 44)	7 (90 - 95)	4 (45 - 59)	0 (0)	9 (100)	9 (100)	9 (100)	9 (100)	0 (0)
Butoxy(3-methylpyridinio)diphenylboron [Compound 10]	0 (0)	3 (30 - 44)	6 (75 - 89)	0 (0)	0 (0)	0 (0)	0 (0)	9 (100)	7 (90 - 99)	9 (100)	9 (100)	0 (0)
Butoxy(4-isopropylpyridinio)diphenylboron [Compound 11]	8 (96 - 99)	0 (0)	4 (45 - 59)	0 (0)	0 (0)	0 (0)	0 (0)	9 (100)	7 (90 - 99)	9 (100)	9 (100)	0 (0)
Butoxy(4-methylpyridinio)diphenylboron [Compound 9]	0 (0)	0 (0)	6 (75 - 89)	0 (0)	0 (0)	0 (0)	0 (0)	9 (100)	0 (0)	9 (100)	0 (0)	0 (0)
Chloro(isoquinolinio)di-p-tolylboron [Compound 12]	0 (0)	0 (0)	0 (0)	0 (0)	7 (90 - 95)	0 (0)	0 (0)	7 (90 - 99)	5 (60 - 89)	7 (90 - 99)	7 (90 - 99)	0 (0)
Hydroxy(3-butylpyridinio)diphenylboron [Compound 7]	6 (75 - 89)	0 (0)	0 (0)	6 (75 - 89)	0 (0)	0 (0)	5 (60 - 74)	9 (100)	0 (0)	9 (100)	9 (100)	5 (60 - 74)
Hydroxy(4-isopropylpyridinio)diphenylboron [Compound 8]	0 (0)	4 (45 - 59)	0 (0)	6 (75 - 89)	0 (0)	0 (0)	0 (0)	9 (100)	0 (0)	9 (100)	7 (90 - 99)	0 (0)
